Laboratory results: US12673942B2, “Azabicyclyl-substituted heterocycles as fungicides” (Bayer Aktiengesellschaft, priority 2020, dated 2026)

Assay: Measurement of Log P values by HPLC on reversed phase columns (EEC directive 79/831 Annex V.A8)
Assay type: physicochemical
Method: Measurement of Log P values as provided herein was performed according to EEC directive 79/831 Annex V.A8 by HPLC (High Performance Liquid Chromatography) on reversed phase columns with the following methods: • ^[a] Log P value is determined by measurement of LC-UV, in an acidic range, with 0.1% formic acid in water and acetonitrile as eluent (linear gradient from 10% acetonitrile to 95% acetonitrile). • ^[b] Log P value is determined by measurement of LC-UV, in a neutral range, with 0.001 molar ammonium acetate solution in water and acetonitrile as eluent (linear gradient from 10% acetonitrile to 95% acetonitrile). • ^[c] Log P value is determined by measurement of LC-UV, in an acidic range, with 0.1% phosphoric acid and acetonitrile as eluent (linear gradient from 10% acetonitrile to 95% acetonitrile).
If more than one Log P value is available within the same method, all the values are given and separated by “+”. […]

[1] = method [a]: LC-UV, acidic range, 0.1% formic acid in water and acetonitrile as eluent

| Compound | chromatographic logP [1] | further results |
| --- | --- | --- |
| Cc1ccc(CC(CON2C(=O)c3ccccc3C2=O)NC(=O)c2c(Oc3cccc(Cl)c3)nnc3ccccc23)c(C)c1 (racemic) [Compound 3-01, 3-(3-chlorophenoxy)-N-{(2RS)-1-(2,4-dimethylphenyl)-3-[(1,3-dioxo-1,3-dihydro-2H-isoindol-2-yl)oxy]propan-2-yl}cinnoline-4-carboxamide] | 4.49 | – |
| Cc1ccc(C[C@H](CON2C(=O)c3ccccc3C2=O)NC(=O)c2c(Oc3cccc(C(F)(F)F)c3)cnc3ccccc23)c(C)c1 (racemic) [Compound 3-02] | 4.72 | – |
| C#Cc1cccc(Oc2cnc3ccccc3c2C(=O)N[C@@H](CON2C(=O)c3ccccc3C2=O)Cc2ccc(C)cc2C)c1 (racemic) [Compound 3-03] | 4.44 | – |
| Cc1ccc(C[C@H](CON2C(=O)c3ccccc3C2=O)NC(=O)c2c(Oc3cccc(C4CC4)c3F)cnc3ccccc23)c(C)c1 (racemic) [Compound 3-04] | 4.96 | – |
| C=Cc1cccc(Oc2cnc3ccccc3c2C(=O)N[C@@H](CON2C(=O)c3ccccc3C2=O)Cc2ccc(C)cc2C)c1 (racemic) [Compound 3-05] | 4.78 | – |
| Cc1ccc(C[C@H](CON2C(=O)c3ccccc3C2=O)NC(=O)c2c(Oc3cccc(Br)c3F)cnc3ccccc23)c(C)c1 (racemic) [Compound 3-06] | 4.78 | – |
| C#Cc1cccc(Oc2cnc3ccccc3c2C(=O)N[C@@H](CON2C(=O)c3ccccc3C2=O)Cc2ccc(C)cc2Cl)c1 (racemic) [Compound 3-07] | 4.47 | – |
| C=Cc1cccc(Oc2cnc3ccccc3c2C(=O)N[C@@H](CON2C(=O)c3ccccc3C2=O)Cc2ccc(C)cc2Cl)c1 (racemic) [Compound 3-08] | 4.71 | – |
| Cc1ccc(C[C@H](CON2C(=O)c3ccccc3C2=O)NC(=O)c2c(Oc3cccc(C(F)(F)F)c3)nnc3c2CCCC3)c(C)c1 (racemic) [Compound 3-09] | 4.59 | – |
| Cc1ccc(C[C@H](CON2C(=O)c3ccccc3C2=O)NC(=O)c2c(Oc3cccc(Cl)c3F)nnc3c2CCCC3)c(C)c1 (racemic) [Compound 3-10] | 4.47 | – |
| Cc1ccc(C[C@H](CON2C(=O)c3ccccc3C2=O)NC(=O)c2c(Oc3cccc(Br)c3F)nnc3c2CCCC3)c(C)c1 (racemic) [Compound 3-11] | 4.51 | – |
| Cc1ccc(C[C@H](CON2C(=O)c3ccccc3C2=O)NC(=O)c2c(Oc3cccc(C(F)(F)F)c3)nnc3c2CCC3)c(C)c1 (racemic) [Compound 3-12] | 4.47 | – |
| Cc1ccc(C[C@H](CON2C(=O)c3ccccc3C2=O)NC(=O)c2c(Oc3cccc(C(F)F)c3)nnc3c2CCCC3)c(C)c1 (racemic) [Compound 3-13] | 4.13 | – |
| Cc1ccc(C[C@H](CON2C(=O)c3ccccc3C2=O)NC(=O)c2c(Oc3cccc(C4CC4)c3F)nnc3c2CCC3)c(C)c1 (racemic) [Compound 3-14] | 4.56 | – |
| Cc1ccc(C[C@@H](CON)NC(=O)c2c(Oc3cccc(C(F)(F)F)c3)nnc3cc(C)ccc23)c(C)c1 (racemic) [Compound 4-01] | 3.42 | LogP [1]: 3.51; chromatographic logP (method [b]: LC-UV, neutral range, 0.001 molar ammonium acetate solution in water and acetonitrile as eluent): 3.62 |
| Cc1ccc(C[C@H](CON)NC(=O)c2c(Oc3cccc(C(F)(F)F)c3)cnc3ccccc23)c(C)c1 (racemic) [Compound 4-02] | 3.17 | – |
| Cc1ccc(CC(CON)NC(=O)c2c(Oc3cccc(Cl)c3)nnc3ccccc23)c(C)c1 (racemic) [Compound 4-03, N-[(2RS)-1-(aminooxy)-3-(2,4-dimethylphenyl)propan-2-yl]-3-(3-chloro-phenoxy)cinnoline-4-carboxamide] | 2.8 | – |
| C#Cc1cccc(Oc2cnc3ccccc3c2C(=O)N[C@@H](CON)Cc2ccc(C)cc2C)c1 (racemic) [Compound 4-04] | 2.83 | – |
| Cc1ccc(C[C@H](CON)NC(=O)c2c(Oc3cccc(C4CC4)c3F)cnc3ccccc23)c(C)c1 (racemic) [Compound 4-05] | 3.31 | – |
| C=Cc1cccc(Oc2cnc3ccccc3c2C(=O)N[C@@H](CON)Cc2ccc(C)cc2C)c1 (racemic) [Compound 4-06] | 3.09 | – |
| Cc1ccc(C[C@H](CON)NC(=O)c2c(Oc3cccc(Br)c3F)cnc3ccccc23)c(C)c1 (racemic) [Compound 4-07] | 3.11 | – |
| C#Cc1cccc(Oc2cnc3ccccc3c2C(=O)N[C@@H](CON)Cc2ccc(C)cc2Cl)c1 (racemic) [Compound 4-08] | 2.87 | – |
| C=Cc1cccc(Oc2cnc3ccccc3c2C(=O)N[C@@H](CON)Cc2ccc(C)cc2Cl)c1 (racemic) [Compound 4-09] | 3.12 | – |
| Cc1ccc(C[C@H](CON)NC(=O)c2c(Oc3cccc(C(F)(F)F)c3)nnc3c2CCCC3)c(C)c1 (racemic) [Compound 4-10] | 2.91 | – |
| Cc1ccc(C[C@H](CON)NC(=O)c2c(Oc3cccc(Cl)c3F)nnc3c2CCCC3)c(C)c1 (racemic) [Compound 4-11] | 2.7 | – |
| Cc1ccc(C[C@H](CON)NC(=O)c2c(Oc3cccc(Br)c3F)nnc3c2CCCC3)c(C)c1 (racemic) [Compound 4-12] | 2.75 | – |

| Compound | chromatographic logP [1] | further results |
| --- | --- | --- |
| Cc1ccc(C[C@H](CON)NC(=O)c2c(Oc3cccc(C(F)(F)F)c3)nnc3c2CCC3)c(C)c1 (racemic) [Compound 4-13] | 2.78 | – |
| Cc1ccc(C[C@H](CON)NC(=O)c2c(Oc3cccc(C(F)F)c3)nnc3c2CCCC3)c(C)c1 (racemic) [Compound 4-14] | 2.55 | – |
| Cc1ccc(C[C@H](CON)NC(=O)c2c(Oc3cccc(C4CC4)c3F)nnc3c2CCC3)c(C)c1 (racemic) [Compound 4-15] | 2.83 | – |
| Cc1ccc(C[C@@H]2CON=C(c3c(Br)cnc4nccnc34)N2)c(C)c1 (racemic) [Compound 7-01] | 2.41 | – |
| Cc1ccc(C[C@H](N)CCl)c(C)c1 (racemic) [Compound 9-02] | 1.24 | – |
| N[C@H](CCl)Cc1ccc(Br)cc1Cl (racemic) [Compound 9-03] | 1.37 | – |
| Cc1ccc(CC(CCl)NC(=O)c2c(Oc3cccc(C4CC4)c3F)nnc3ccccc23)c(C)c1 (racemic) [Compound 10-01, N-[(2RS)-1-chloro-3-(2,4-dimethylphenyl)propan-2-yl]-3-(3-cyclopropyl-2-fluorophenoxy)cinnoline-4-carboxamide] | 4.73 | – |
| Cc1ccc(CC(CCl)NC(=O)c2c(Oc3cccc(C(F)(F)F)c3)cnc3ccccc23)c(C)c1 (racemic) [Compound 10-02, N-[(2RS)-1-chloro-3-(2,4-dimethylphenyl)propan-2-yl]-3-[3-(trifluoro-methyl)phenoxy]quinoline-4-carboxamide] | 4.81 | – |
| Cc1ccc(C[C@H](CCl)NC(=O)c2c(Oc3cccc(C4CC4)c3F)cnc3ccccc23)c(Cl)c1 (racemic) [Compound 10-03] | 5 | – |
| Cc1ccc(C[C@H](CCl)NC(=O)c2c(Oc3cccc(Br)c3F)cnc3ccccc23)c(Cl)c1 (racemic) [Compound 10-04] | 4.7 | – |
| Cc1ccc(C[C@H](CCl)NC(=O)c2c(Oc3cccc(C(F)F)c3)cnc3ccccc23)c(Cl)c1 (racemic) [Compound 10-05] | 4.33 | – |
| Cc1ccc(C[C@H](CCl)NC(=O)c2c(Oc3cccc(C(F)(F)F)c3)cnc3ccoc23)c(C)c1 (racemic) [Compound 10-06] | 4.55 | – |
| Cc1ccc(C[C@H](CCl)N/C(=N\O)c2c(Oc3cccc(C4CC4)c3F)nnc3ccccc23)c(C)c1 (racemic) [Compound 12-01, N-[(2RS)-1-chloro-3-(2,4-dimethylphenyl)propan-2-yl]-3-(3-cyclopropyl-2-fluorophenoxy)-N′-hydroxycinnoline-4-carboximidamide] | 4.7 | – |
| Cc1ccc(C[C@H](CCl)NC(=NO)c2c(Oc3cccc(C4CC4)c3F)cnc3ccccc23)c(Cl)c1 (racemic) [Compound 12-02] | 4.93 | – |
| Cc1ccc(C[C@H](CCl)NC(=NO)c2c(Oc3cccc(Br)c3F)cnc3ccccc23)c(Cl)c1 (racemic) [Compound 12-03] | 4.62 | – |
| Cc1ccc(C[C@H](CCl)NC(=NO)c2c(Oc3cccc(C(F)F)c3)cnc3ccccc23)c(Cl)c1 (racemic) [Compound 12-04] | 4.28 | – |
| Cc1ccc(C[C@H](CCl)NC(=NO)c2c(Oc3cccc(C(F)(F)F)c3)cnc3ccoc23)c(C)c1 (racemic) [Compound 12-05] | 4.4 | – |
| Cc1ccc(C[C@H](CCl)NC(=O)c2c(Br)cnc3nccnc23)c(C)c1 (racemic) [Compound 14-01] | 2.97 | – |
| Cc1ccc(C[C@H](CCl)NC(=NO)c2c(Br)cnc3nccnc23)c(C)c1 (racemic) [Compound 15-01] | 2.73 | – |
| Cc1ccc(C[C@@H]2CON=C(c3c(Oc4cccc(C)c4F)cnc4ccccc34)N2)c(C)c1 (racemic) [Compound I-020] | 4.15 | – |
| Cc1ccc(C[C@@H]2CON=C(c3c(Oc4cccc(C5CC5)c4F)cnc4ccccc34)N2)c(Cl)c1 (racemic) [Compound I-021] | 4.55 | – |
| Cc1ccc(C[C@@H]2CON=C(c3c(Oc4cccc(C(F)(F)F)c4)nnc4c3CCCC4)N2)c(C)c1 (racemic) [Compound I-022] | 3.99 | – |
| Cc1ccc(C[C@@H]2CON=C(c3c(Oc4cccc(Cl)c4F)nnc4c3CCCC4)N2)c(C)c1 (racemic) [Compound I-023] | 3.91 | – |
| Cc1ccc(C[C@@H]2CON=C(c3c(Oc4cccc(Br)c4F)nnc4c3CCCC4)N2)c(C)c1 (racemic) [Compound I-024] | 4.01 | – |
| C#Cc1cccc(Oc2cnc3ccccc3c2C2=NOC[C@@H](Cc3ccc(C)cc3Cl)N2)c1 (racemic) [Compound I-025] | 3.91 | – |
